Data taken from article PMC10539439 (Pharmacological Reports, 2023).
“And” between values parts separate entries of the source, which are not always exact repeats. Identical values can stand only once.

Key:
Type in all cases: in vivo, rat
[1] = Spontaneous activity in the home cage (RFID, TraffiCage); details: for activity: hight-fat diet, 5mg/kg, after first administration, 5 mg/kg
Procedure: Rat spontaneous activity was monitored for 24 h on the 1st and 24th (after multiple administrations of tested compound or vehicle) day of treatment with a radio-frequency identification system (RFID system)—TraffiCage (TSE-Systems, Germany)—transponder-based activity monitoring under group housing. The animals had subcutaneously implanted transponder identification with RFID code, which allowed the presence and time spent in different areas of the home cage to be recorded. The data were collected with a dedicated platform, placed under the home cage, containing five RFID antennas (six cage areas) reading telemetrically the presence of RFID chips and stored for analysis with a dedicated computer program. The animals during the monitoring of spontaneous activity were in home cages and always had free access to food and water.

[2] = Body weight of non-obese rats fed a standard diet; details: for body weight of rat in g in particular day: standard diet, 5 mg/kg
Procedure: Male Wistar rats (190–220 g) were housed in pairs. The control group (standard diet + vehicle) received vehicle (water, ip), while the test group (standard diet + 4-OH-Guanabenz) was injected (ip) with 4-OH-Guanabenz at a dose of 5 mg/kg b.w. dissolved in water. Body weights were measured daily immediately prior to drug administration.

[3] = Obesity induced with a high-fat diet: body weight; details: for effect on body weight (in words): vs obese control; for body weight of rat in g in particular day / change of body weight: hight-fat diet; for change of body weight: individual rats
Procedure: The experiments were carried out on male Wistar rats ([…]). Initial body weight was: 140–160 g obesity model or 190–220 g rats in which the obesity model was not induced. The animals were housed in pairs in plastic cages in constant temperature facilities exposed to a light–dark cycle; water and food were available ad libitum. The control and experimental groups consisted of six-to-eight animals each. All experiments were carried out according to the guidelines of the Jagiellonian University Animal Use and Care Committee and were approved for realization (Permissions No. 54/2012 and No. 128/2017).
Male Wistar rats were housed in pairs and fed a high-fat diet consisting of a 40% fat blend (Labofeed B with 40% lard, Morawski, Manufacturer Feed, Poland) for 14 weeks, with water available ad libitum. Control rats were fed a standard diet (Labofeed B, Morawski Manufacturer Feed, Poland). After 10 weeks, rats with obesity-induced via their diet were randomly divided into three equal groups that had the same mean body weight and were treated ip with test compounds at doses of 2 or 5 mg/kg b.w./day (high-fat diet + 4OHGuanabenz) or control group: vehicle–water 0.3 ml/kg (high-fat diet + vehicle = obesity control group) once a day in the morning between 9:00 AM and 10:00 AM for 25 days. Control rats were maintained on a standard diet, with ip administration of vehicle – water (standard diet + vehicle = control group).
The high-fat diet contained 550 kcal and the standard diet 280 kcal per 100 g.

## Cl.N=C(N)NN=Cc1c(Cl)cc(O)cc1Cl [4-OH-Guanabenz, 2-[(2,6-Dichloro-4-hydroxyphenyl)methylene]hydrazinecarboximidamide Hydrochloride]
[1]; hour 2, individual rats
  activity: 241 counts and 466 counts and 407 counts and 76 counts and 54 counts
[1]; hour 3, individual rats
  activity: 175 counts and 744 counts and 1081 counts and 269 counts and 412 counts
[1]; hour 4, individual rats
  activity: 468 counts and 421 counts and 262 counts and 105 counts and 179 counts
[1]; hour 5, individual rats
  activity: 721 counts and 62 counts and 232 counts and 2 counts and 78 counts
[1]; hour 6, individual rats
  activity: 248 counts and 6* counts and 445 counts and 569 counts and 80 counts
[1]; hour 7, individual rats
  activity: 1058 counts and 287 counts and 302 counts and 211 counts and 276 counts
[1]; hour 8, individual rats
  activity: 513 counts and 751 counts and 432 counts (2×) and 306 counts
[1]; hour 9, individual rats
  activity: 853 counts and 240 counts and 521 counts and 547 counts and 173 counts
[1]; hour 10, individual rats
  activity: 276 counts and 938 counts and 536 counts and 556 counts and 142 counts
[1]; hour 11, individual rats
  activity: 504 counts and 558 counts and 708 counts and 326 counts and 403 counts
[1]; hour 12, individual rats
  activity: 347 counts and 440 counts and 410 counts and 404 counts and 692 counts
[1]; hour 13, individual rats
  activity: 674 counts and 446 counts and 516 counts and 428 counts and 684 counts
[1]; hour 14, individual rats
  activity: 437 counts and 1077* counts and 632 counts and 394 counts and 897 counts
[1]; hour 15, individual rats
  activity: 692 counts and 273 counts and 929 counts and 462 counts and 743 counts
[1]; hour 16, individual rats
  activity: 387 counts and 825 counts and 409 counts and 821 counts and 664 counts
[1]; hour 17, individual rats
  activity: 618 counts and 1081 counts and 250 counts and 383 counts and 813 counts
[1]; hour 18, individual rats
  activity: 339 counts and 628 counts and 260 counts and 133 counts and 576 counts
[1]; hour 19, individual rats
  activity: 608 counts and 953 counts and 971 counts and 592 counts and 271 counts
[1]; hour 20, individual rats
  activity: 298 counts and 398 counts and 614 counts and 684 counts and 663 counts
[1]; hour 21, individual rats
  activity: 215 counts and 344 counts and 275 counts and 266 counts and 475 counts
[1]; obese rats, after the first and 24th administration, 5 mg/kg b.w.
  effect on spontaneous activity (in words): no effect
[2]; rats fed standard diet, 5 mg/kg b.w. ip
  effect on body weight (in words): No significant effects on body weight
[2]; day 1, individual rats
  body weight of rat in g in particular day: 206 g and 214 g and 229 g and 239 g
[2]; day 2, individual rats
  body weight of rat in g in particular day: 206 g and 217 g and 231 g and 242 g
[2]; day 3, individual rats
  body weight of rat in g in particular day: 203 g and 214 g and 223 g and 240 g
[2]; day 4, individual rats
  body weight of rat in g in particular day: 207 g and 216 g and 230 g and 238 g
[2]; day 5, individual rats
  body weight of rat in g in particular day: 210 g and 220 g and 230 g and 241 g
[2]; day 6, individual rats
  body weight of rat in g in particular day: 212 g and 222 g and 230 g and 241 g
[2]; day 7, individual rats
  body weight of rat in g in particular day: 212 g and 218 g and 231 g and 244 g
[2]; day 8, individual rats
  body weight of rat in g in particular day: 214 g and 212 g and 227 g and 240 g
[2]; day 9, individual rats
  body weight of rat in g in particular day: 210 g (2×) and 222 g and 237 g
[2]; day 10, individual rats
  body weight of rat in g in particular day: 212 g and 215 g and 225 g and 240 g
[2]; day 11, individual rats
  body weight of rat in g in particular day: 213 g and 214 g and 222 g and 239 g
[2]; day 12, individual rats
  body weight of rat in g in particular day: 211 g and 213 g and 224 g and 241 g
[2]; day 13, individual rats
  body weight of rat in g in particular day: 214 g and 212 g and 225 g and 242 g
[2]; day 14, individual rats
  body weight of rat in g in particular day: 215 g and 211 g and 225 g and 239 g
[2]; day 15, individual rats
  body weight of rat in g in particular day: 217 g and 211 g and 224 g and 242 g
[2]; day 16, individual rats
  body weight of rat in g in particular day: 217 g and 213 g and 225 g and 242 g
[2]; day 17, individual rats
  body weight of rat in g in particular day: 218 g and 212 g and 226 g and 243 g
[2]; day 18, individual rats
  body weight of rat in g in particular day: 218 g and 214 g and 227 g and 243 g
[2]; day 19, individual rats
  body weight of rat in g in particular day: 219 g and 214 g and 227 g and 244 g
[2]; day 20, individual rats
  body weight of rat in g in particular day: 220 g and 215 g and 228 g and 244 g
[2]; day 21, individual rats
  body weight of rat in g in particular day: 220 g and 216 g and 228 g and 245 g
[2]; day 22, individual rats
  body weight of rat in g in particular day: 221 g and 216 g and 229 g and 245 g
[2]; day 23, individual rats
  body weight of rat in g in particular day: 221 g and 217 g and 229 g and 246 g
[2]; day 24, individual rats
  body weight of rat in g in particular day: 220 g and 217 g and 230 g and 246 g
[2]; day 25, individual rats
  body weight of rat in g in particular day: 221 g and 218 g and 230 g and 247 g
[3]; high-fat diet rats, 2 mg/kg b.w. ip, 25 days
  effect on body weight (in words): did not cause weight loss, but significantly reduced weight gain
[3]; high-fat diet rats, 5 mg/kg b.w. ip once a day, 25 days
  weight loss compared to the baseline weight before treatment: approximately 14.8%
[3]; high-fat diet rats, 5 mg/kg b.w. ip, 25 days
  effect on body weight (in words): significant decrease in body weight
[3]; 2mg/kg, day 1, individual rats, 2 mg/kg
  body weight of rat in g in particular day: 405 g (3×) and 415 g and 410 g (2×)
[3]; 2mg/kg, day 3, individual rats, 2 mg/kg
  body weight of rat in g in particular day: 405 g (2×) and 410 g and 414 g (2×) and 406 g
[3]; 2mg/kg, day 5, individual rats, 2 mg/kg
  body weight of rat in g in particular day: 409 g (2×) and 411 g and 413 g (2×) and 415 g
[3]; 2mg/kg, day 7, individual rats, 2 mg/kg
  body weight of rat in g in particular day: 408 g (2×) and 414 g and 412 g (2×) and 416 g
[3]; 2mg/kg, day 9, individual rats, 2 mg/kg
  body weight of rat in g in particular day: 406 g (2×) and 414 g and 415 g (2×) and 422 g
[3]; 2mg/kg, day 11, individual rats, 2 mg/kg
  body weight of rat in g in particular day: 412 g (2×) and 413 g and 417 g (2×) and 423 g
[3]; 2mg/kg, day 13, individual rats, 2 mg/kg
  body weight of rat in g in particular day: 409 g (2×) and 418 g and 414 g (2×) and 425 g
[3]; 2mg/kg, day 15, individual rats, 2 mg/kg
  body weight of rat in g in particular day: 410 g (2×) and 422 g and 401 g (2×) and 428 g
[3]; 2mg/kg, day 17, individual rats, 2 mg/kg
  body weight of rat in g in particular day: 412 g (2×) and 422 g and 403 g (2×) and 430 g
[3]; 2mg/kg, day 19, individual rats, 2 mg/kg
  body weight of rat in g in particular day: 412 g (2×) and 424 g and 407 g (2×) and 433 g
[3]; 2mg/kg, day 21, individual rats, 2 mg/kg
  body weight of rat in g in particular day: 415 g (2×) and 429 g and 412 g (2×) and 434 g
[3]; 2mg/kg, day 23, individual rats, 2 mg/kg
  body weight of rat in g in particular day: 408 g (2×) and 434 g and 415 g (2×) and 435 g
[3]; 2mg/kg, day 25, individual rats, 2 mg/kg
  body weight of rat in g in particular day: 405 g (2×) and 432 g and 415 g (2×) and 439 g
[3]; 2mg/kg
  change of body weight: 34 g/25days and 5 g/25days and 0 g/25days and 17 g/25days
[3]; 5mg/kg, day 1, individual rats, 5 mg/kg
  body weight of rat in g in particular day: 378 g and 415 g and 418 g and 409 g and 381 g and 457 g
[3]; 5mg/kg, day 3, individual rats, 5 mg/kg
  body weight of rat in g in particular day: 367 g and 412 g and 410 g and 387 g and 366 g and 443 g
[3]; 5mg/kg, day 5, individual rats, 5 mg/kg
  body weight of rat in g in particular day: 358 g and 396 g and 405 g and 374 g and 360 g and 427 g
[3]; 5mg/kg, day 7, individual rats, 5 mg/kg
  body weight of rat in g in particular day: 344 g and 387 g and 385 g and 364 g and 347 g and 411 g
[3]; 5mg/kg, day 9, individual rats, 5 mg/kg
  body weight of rat in g in particular day: 339 g and 377 g and 376 g and 357 g and 340 g and 394 g
[3]; 5mg/kg, day 11, individual rats, 5 mg/kg
  body weight of rat in g in particular day: 335 g and 372 g and 373 g and 350 g and 340 g and 388 g
[3]; 5mg/kg, day 13, individual rats, 5 mg/kg
  body weight of rat in g in particular day: 326 g and 364 g and 373 g and 348 g and 336 g and 386 g
[3]; 5mg/kg, day 15, individual rats, 5 mg/kg
  body weight of rat in g in particular day: 327 g and 363 g and 377 g and 350 g and 334 g and 384 g
[3]; 5mg/kg, day 17, individual rats, 5 mg/kg
  body weight of rat in g in particular day: 326 g and 362 g and 384 g and 348 g and 331 g and 386 g
[3]; 5mg/kg, day 19, individual rats, 5 mg/kg
  body weight of rat in g in particular day: 327 g and 356 g and 377 g (2×) and 349 g and 333 g
[3]; 5mg/kg, day 21, individual rats, 5 mg/kg
  body weight of rat in g in particular day: 314 g and 353 g and 370 g and 334 g and 328 g and 367 g
[3]; 5mg/kg, day 23, individual rats, 5 mg/kg
  body weight of rat in g in particular day: 310 g and 355 g and 373 g and 342 g and 328 g and 365 g
[3]; 5mg/kg, day 25, individual rats, 5 mg/kg
  body weight of rat in g in particular day: 315 g and 357 g and 378 g and 348 g and 325 g and 370 g
[3]; 5mg/kg
  change of body weight: -56 g/25days and -87 g/25days and -63 g/25days and -58 g/25days and -40 g/25days and -61 g/25days
